According to article PMC11579512, “Deoxybouvardin-glucoside induces apoptosis in non-small cell lung cancer cells by targeting EGFR/MET and AKT signaling pathway” (EXCLI Journal, 2024):
Read-outs that look alike come from different tables or passages of the source.

How the values were obtained:
[1] = system: HCC827 cells; test: Multi-caspase assay, HCC827; type: cell-based, human; design: Caspase+ cells / Total Caspase+ cells / dead cells (multi-caspase assay) / Live cells (multi-caspase assay): unit not given here; conditions: HCC827, DBG 12 nM, sample 3
Protocol: HaCaT cells were grown in DMEM, whereas HCC827 and HCC827GR cells were grown in RPMI 1640. All culture media were supplemented with FBS (10 %) and P/S (1 %), and the cells were grown at 37 °C in 5 % CO2.

[2] = system: HCC827GR cells
Protocol: (§1) All culture media were supplemented with FBS (10 %) and P/S (1 %), and the cells were grown at 37 °C in 5 % CO2.
(§2) The cells were treated with MTT and incubated for 2 h. The supernatants were removed, and the remaining formazan crystals were dissolved in DMSO before absorbance measurement at 570 nm using a Multiscan GO spectrophotometer (Thermo Fisher Scientific, Vantaa, Finland).

[3] = system: HaCaT cells
Protocol: as §1, §2

[4] = system: HCC827 cells
Protocol: as §1, §2

[5] = target: T1, MET (Homo sapiens, UniProt P08581); test: In vitro ADP-Glo kinase assay, MET; type: biochemical
T1 construct: purchased Promega
Protocol: Subsequently, each well was added with ADP-Glo reagent and incubated for another 40 min. After completion of the kinase reaction, each well was added with kinase activity detection reagent and then incubated for 30 min. Liquid was dispensed with I.DOT (Dispendix, Stuttgart, Germany). Luminescence was measured on a Centro LB 960 microplate luminometer (Berthold Technologies).

T1 sequence (P08581 25-1390): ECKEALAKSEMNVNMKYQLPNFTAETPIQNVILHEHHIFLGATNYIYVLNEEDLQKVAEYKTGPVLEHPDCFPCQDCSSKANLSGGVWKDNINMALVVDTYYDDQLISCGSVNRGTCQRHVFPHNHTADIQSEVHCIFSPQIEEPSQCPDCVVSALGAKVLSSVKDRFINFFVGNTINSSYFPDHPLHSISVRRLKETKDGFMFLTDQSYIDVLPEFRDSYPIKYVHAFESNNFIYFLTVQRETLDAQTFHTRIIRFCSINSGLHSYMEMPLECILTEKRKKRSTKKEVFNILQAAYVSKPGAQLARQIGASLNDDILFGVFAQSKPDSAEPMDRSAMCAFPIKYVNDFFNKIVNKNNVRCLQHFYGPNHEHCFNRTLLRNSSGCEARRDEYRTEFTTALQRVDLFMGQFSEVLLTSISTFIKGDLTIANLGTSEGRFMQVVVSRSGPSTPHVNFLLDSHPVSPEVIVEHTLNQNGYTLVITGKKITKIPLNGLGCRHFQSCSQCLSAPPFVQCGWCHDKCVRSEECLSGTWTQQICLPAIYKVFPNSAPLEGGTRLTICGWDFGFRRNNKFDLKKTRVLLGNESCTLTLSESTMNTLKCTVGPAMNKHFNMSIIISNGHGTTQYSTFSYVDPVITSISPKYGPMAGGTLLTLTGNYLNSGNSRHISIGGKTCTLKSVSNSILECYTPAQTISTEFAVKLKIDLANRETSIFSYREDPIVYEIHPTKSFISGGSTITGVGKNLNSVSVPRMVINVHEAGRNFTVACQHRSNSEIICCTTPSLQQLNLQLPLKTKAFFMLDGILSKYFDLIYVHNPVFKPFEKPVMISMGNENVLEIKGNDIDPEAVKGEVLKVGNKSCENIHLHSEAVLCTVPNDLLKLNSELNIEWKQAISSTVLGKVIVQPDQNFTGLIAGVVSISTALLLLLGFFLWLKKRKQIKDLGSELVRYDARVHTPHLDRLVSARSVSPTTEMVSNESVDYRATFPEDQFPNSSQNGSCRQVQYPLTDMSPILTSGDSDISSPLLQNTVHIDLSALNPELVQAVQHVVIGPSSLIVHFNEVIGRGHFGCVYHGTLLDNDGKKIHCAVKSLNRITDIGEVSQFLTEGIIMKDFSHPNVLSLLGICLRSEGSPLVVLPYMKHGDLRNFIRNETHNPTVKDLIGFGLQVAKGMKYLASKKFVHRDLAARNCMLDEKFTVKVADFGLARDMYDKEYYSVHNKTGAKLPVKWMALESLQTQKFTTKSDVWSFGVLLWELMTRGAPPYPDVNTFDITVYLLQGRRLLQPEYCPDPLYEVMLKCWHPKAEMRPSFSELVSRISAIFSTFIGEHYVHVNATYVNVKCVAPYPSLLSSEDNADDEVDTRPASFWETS

IC50 ([2]; 48 h): 8.65 nM
IC50 ([4]; 48 h): 8.6 nM
IC50 ([5]; ADP-Glo, MET 4 ng, RT, 60 min, luminescence, n=3): 7.26 nM
kinase activity, in words ([5]; DBG 3, 6, 12 nM): significantly inhibited
SMILES: COc1ccc(C[C@H]2C(=O)N[C@@H](C)C(=O)N(C)[C@H]3Cc4ccc(cc4)Oc4cc(ccc4O[C@@H]4O[C@H](CO)[C@@H](O)[C@H](O)[C@H]4O)C[C@@H](C(=O)N[C@H](C)C(=O)N[C@@H](C)C(=O)N2C)N(C)C3=O)cc1 [DBG, deoxybouvardin glucoside]
Live cells (multi-caspase assay) [1]: 74.86
Total Caspase+ cells [1]: 25.09
dead cells (multi-caspase assay) [1]: 0.05
cell viability ([2]; 24 h, DBG 3 nM, replicate 1): 88.10%
cell viability ([2]; 24 h, DBG 3 nM, replicate 2): 92.63%
cell viability ([2]; 24 h, DBG 3 nM, replicate 3): 91.95%
cell viability ([2]; 24 h, DBG 6 nM, replicate 1): 81.14%
cell viability ([2]; 24 h, DBG 6 nM, replicate 2): 86.21%
cell viability ([2]; 24 h, DBG 6 nM, replicate 3): 84.35%
cell viability ([2]; 24 h, DBG 12 nM, replicate 1): 77.73%
cell viability ([2]; 24 h, DBG 12 nM, replicate 2): 74.83%
cell viability ([2]; 24 h, DBG 12 nM, replicate 3): 73.57%
cell viability ([2]; 48 h, DBG 3 nM, replicate 1): 81.02%
cell viability ([2]; 48 h, DBG 3 nM, replicate 2): 78.86%
cell viability ([2]; 48 h, DBG 3 nM, replicate 3): 79.86%
cell viability ([2]; 48 h, DBG 6 nM, replicate 1): 59.60%
cell viability ([2]; 48 h, DBG 6 nM, replicate 2): 58.31%
cell viability ([2]; 48 h, DBG 6 nM, replicate 3): 59.16%
cell viability ([2]; 48 h, DBG 12 nM, replicate 1): 38.12%
cell viability ([2]; 48 h, DBG 12 nM, replicate 2): 38.18%
cell viability ([2]; 48 h, DBG 12 nM, replicate 3): 39.51%
viability, in words ([2]; DBG 3, 6, 12 nM): suppressed the viability
cell viability ([3]; 24 h, DBG 3 nM, replicate 1): 103.33%
cell viability ([3]; 24 h, DBG 3 nM, replicate 2): 102.45%
cell viability ([3]; 24 h, DBG 3 nM, replicate 3): 101.31%
cell viability ([3]; 24 h, DBG 6 nM, replicate 1): 101.02%
cell viability ([3]; 24 h, DBG 6 nM, replicate 2): 102.90%
cell viability ([3]; 24 h, DBG 6 nM, replicate 3): 101.77%
cell viability ([3]; 24 h, DBG 12 nM, replicate 1): 101.52%
cell viability ([3]; 24 h, DBG 12 nM, replicate 2): 102.50%
cell viability ([3]; 24 h, DBG 12 nM, replicate 3): 100.11%
cell viability ([3]; 48 h, DBG 3 nM, replicate 1): 101.48%
cell viability ([3]; 48 h, DBG 3 nM, replicate 2): 104.66%
cell viability ([3]; 48 h, DBG 3 nM, replicate 3): 100.09%
cell viability ([3]; 48 h, DBG 6 nM, replicate 1): 97.99%
cell viability ([3]; 48 h, DBG 6 nM, replicate 2): 98.42%
cell viability ([3]; 48 h, DBG 6 nM, replicate 3): 101.29%
cell viability ([3]; 48 h, DBG 12 nM, replicate 1): 98.16%
cell viability ([3]; 48 h, DBG 12 nM, replicate 2): 94.89%
cell viability ([3]; 48 h, DBG 12 nM, replicate 3): 94.68%
viability, in words ([3]; DBG 3, 6, 12 nM): did not affect
cell viability ([4]; 24 h, DBG 3 nM, replicate 1): 86.91%
cell viability ([4]; 24 h, DBG 3 nM, replicate 2): 83.02%
cell viability ([4]; 24 h, DBG 3 nM, replicate 3): 81.91%
cell viability ([4]; 24 h, DBG 6 nM, replicate 1): 73.81%
cell viability ([4]; 24 h, DBG 6 nM, replicate 2): 74.94%
cell viability ([4]; 24 h, DBG 6 nM, replicate 3): 75.18%
cell viability ([4]; 24 h, DBG 12 nM, replicate 1): 63.61%
cell viability ([4]; 24 h, DBG 12 nM, replicate 2): 64.36%
cell viability ([4]; 24 h, DBG 12 nM, replicate 3): 66.17%
cell viability ([4]; 48 h, DBG 3 nM, replicate 1): 82.82%
cell viability ([4]; 48 h, DBG 3 nM, replicate 2): 81.25%
cell viability ([4]; 48 h, DBG 3 nM, replicate 3): 79.60%
cell viability ([4]; 48 h, DBG 6 nM, replicate 1): 60.78%
cell viability ([4]; 48 h, DBG 6 nM, replicate 2): 58.53%
cell viability ([4]; 48 h, DBG 6 nM, replicate 3): 60.97%
cell viability ([4]; 48 h, DBG 12 nM, replicate 1): 37.02%
cell viability ([4]; 48 h, DBG 12 nM, replicate 2): 36.88%
cell viability ([4]; 48 h, DBG 12 nM, replicate 3): 36.42%
viability, in words ([4]; DBG 3, 6, 12 nM): suppressed the viability
